Source: patent US6531636B1, “Synthetic endogenous cannabinoids analogues and uses thereof” (priority 1998, dated 2003)

Key:
[1] = test system: rats, mean arterial pressure; assay: Hypotensive effect in non-anaesthetized cannulated rats; format: in vivo; conditions: dose 12 mg/Kg
Experimental: To evaluate the potency of the compounds of the present invention as anti-hypertension agents, each compound was dissolved in a mixture of ethanol:emulphor:saline (1:1:18) and administered to non-anaestisized rats, cannulated through the aorta (for injection) and the jugular view (for measurements of blood pressure). […]

CB1 receptor = biological target: T1, CB1 receptor (Rattus norvegicus, UniProt P20272); assay: Competitive inhibition of [3H]HU-243 binding to CB1, synaptosomal membranes; conditions: [3H]HU-243 60 pM, synaptosomal membrane protein
T1 construct: 4 μg of synaptosomal membrane protein were homogenized in 50 mM Tris-HCl; from tissue; host or cells: synaptosomal membranes (brain tissue)
Experimental: In principle, 4 μg of synaptosomal membrane protein were homogenized in 50 mM Tris-HCl, 2 mM MgCl2 and 1 mM EDTA pH 7.4 to obtain the binding mixture having a final concentration of 60 pM, with which the Ki was determined according to the assay described by Devane et al. [Devane et al. (1992) ibid.]. […] Ki values were calculated according to following known equation: Ki-IC50/(1+[L]/Kd) wherein IC50 is the concentration of a compound that will reduce a specific binding of a given radioligand by 50%; [L] is the concentration of the radioligand used in the assay and Kd is the dissociation constant for the radioligand (see also FIG. 3).

[2] = test system: female mice, arachidonic acid-induced paw swelling; assay: Arachidonic acid-induced paw edema in mice; format: in vivo; conditions: paw volume 30 min after arachidonic acid
Experimental: The potency of each of the compounds of the invention were evaluated for their potency to act as anti-inflammatory agents, according to the method described Calhoun W. et al., [Calhoun W. et al. Agents and Actions 21:306-309 (1987)]. In the method, water was substituted for mercury as the displacement medium. Platelet Activating Factor (PAF) (1.0 μg) or arachidonic acid (1.0 mg) dissolved in […] of a saline buffer containing 5% ethanol were injected subcutaneously into the plantar surface of the right hind paw of ether anaesthetized female mice (20-25 gr). The volume of the right foot was measured to the level of the lateral malleous by water displacement before treatment and 15 min after PAF injection or 30 min after arachidonic injection. The change in paw volume was calculated for each mouse. Table 2 presents the inhibition of archidonic acid induced paw swelling. The values obtained are measured as the increase in paw volume using a plethysmometer. The degree of swelling was expressed as the percentage in drug-treated mice compared to inhibition of paw edema from vehicle (Emulphor:ethanol:saline) treated controls (95% significance by ANOVA. N=5 mice/group). Control animals received peanut oil (50 μl).

mice = assay: Analgesia, standard hot plate test in mice; format: in vivo; conditions: intravenous injection in tail vein
Experimental: The novel compounds prepared as described above were evaluated for their potency in […], according to the standard hot plate test, as briefly described hereinafter.
The compounds of the invention (HU-310, HU-313 and HU-314) wee dissolved in a detergent (Emulphomethanol:saline (5:5:90)) mixture and administered by intravenous injection in the tail vein of mice with an injection volume of 0.1 ml/10 g of body weight.

[3] = test system: pigeons suffering from emesia caused by cisplatin; assay: Antiemetic activity, cisplatin-induced emesis in pigeons; format: in vivo; conditions: subcutaneous
Experimental: The compounds of the invention were also evaluated for their potency as an antiemetic agent following the procedure described by Feigenbaum et al., [Eur. J. Pharmacol. 169:159-165 (1989, wherein pigeons suffering from emesia caused by an antineoplastic drug (cisplatin) were used as the model.
Accordingly, each compound was dissolved in Emulphor (detergent):ethanol:saline (5:5:90) and administered subcutaneously to the pigeons. The injection volume was 1.0 ml/kg body weight. Reduction of vomiting with 2-O-Arachidonyl glyceryl ether (HU-310) was 50% when using 3.0 mg of the active ingredient per kg body weight.

[4] = test system: rabbits with chymotrypsin-induced glaucoma; assay: Antiglaucoma activity, chymotrypsin-induced stable glaucoma in rabbits; format: in vivo; conditions: 0.01% in aqueous solution
Text: Each compound was further evaluated for their potency as agent for treating and/or preventing glaucoma. Accordingly, stable glaucoma was induced in rabbits by injecting into the eye δ-chymotrypsin as described by Mechoulam R. et al., [Mechoulam R. et al., The Therapeutic Potential of Marihuana eds S. Cohen, R. C. Stillman Plenum Press, N.Y., pp. 35-48 (1975)]. As a control, pilocarpine, a standard antiglaucoma drug, was employed showing intraocular pressure (I.O.P.) reduction at a concentration of 0.01% in aqueous solution and provided a period of 30 hours delay in the recovery of the original chymotrypsin-induced IOP.
The compounds of the invention were each dissolved in a detergent (Emulphor:ethanol:saline (5:5:90)) mixture and then further diluted with saline to obtain the desired concentrations.

T1 sequence (P20272 whole entry): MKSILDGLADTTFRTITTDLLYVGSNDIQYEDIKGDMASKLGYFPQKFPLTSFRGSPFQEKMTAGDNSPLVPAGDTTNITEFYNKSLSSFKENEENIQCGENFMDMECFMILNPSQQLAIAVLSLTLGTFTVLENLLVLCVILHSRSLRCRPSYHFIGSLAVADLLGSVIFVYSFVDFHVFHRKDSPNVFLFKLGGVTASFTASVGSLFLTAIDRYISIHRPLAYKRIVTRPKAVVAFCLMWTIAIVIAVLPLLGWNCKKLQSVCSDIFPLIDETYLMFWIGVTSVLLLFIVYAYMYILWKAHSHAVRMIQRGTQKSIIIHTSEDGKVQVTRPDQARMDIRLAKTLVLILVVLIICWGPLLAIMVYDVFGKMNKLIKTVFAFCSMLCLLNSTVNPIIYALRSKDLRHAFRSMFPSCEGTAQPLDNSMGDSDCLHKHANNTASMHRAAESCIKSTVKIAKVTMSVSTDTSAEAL

Structure (SMILES)	Latency to maximal effect [1] [min]	Maximal hypotension (difference in mean arterial pressure before and after drug) [1] [mm Hg]	Time of recovery [1] [min]	Analgesia, ED50 (mice) [mg/kg]	further results
CCCCC/C=C\C/C=C\C/C=C\C/C=C\CCCC(=O)OC(CO)CO [2-Ara-GL, 2-arachidonoyl glycerol]	7.2	34	13.0		
CCCCC/C=C\C/C=C\C/C=C\C/C=C\CCCC(=O)NCCO [ANA, anandamide]	2.0	15	7.0		
CCCCC/C=C\C/C=C\C/C=C\C/C=C\CCCCOC(CO)CO [HU-310, 2-O-Arachidonyl glyceryl ether]	34.0	105	75.0	2.8	Ki (CB1 receptor): 62.3 ± 3 nM; Inhibition of Arachidonic Acid-induced Paw Edema ([2]; dose 5 mg/kg): 70.2%; Inhibition of Arachidonic Acid-induced Paw Edema ([2]; dose 10 mg/kg): 92.2%; Inhibition of Arachidonic Acid-induced Paw Edema ([2]; dose 25 mg/kg): 100.0%; Reduction of vomiting ([3]; 3.0 mg per kg body weight): 50%
CCCCC/C=C\C/C=C\C/C=C\CCCCCCCOC(CO)CO [HU-314, 2-dihomo-γ-linolenyl glyceryl ether]				4.6	Reduction of vomiting (in words) ([3]; compared with HU-310): vomiting was also reduced, however to a lesser extent
CC[C@@H]1C(=O)OC[C@@H]1Cc1cncn1C [pilocarpine]					Delay in the recovery of the original chymotrypsin-induced IOP [4]: 30 h
